Test [1] deals with T1, PAR4 (Homo sapiens (Human), UniProt Q96RI0). As to the kind of experiment: Gamma thrombin induced platelet aggregation assay (PRP assay). It is filed as cell-based. The following applies: γ-thrombin induced platelet aggregation in PRP.
The target in test [2] is T1, PAR4. As to the kind of experiment: FLIPR assay in PAR4-expressing HEK293 cells (calcium mobilization). It is filed as cell-based. To be noted: PAR4 antagonist activity, FLIPR assay as described in Example A.

SMILES strings stand for the structures.

T1 sequence (Q96RI0 18-385): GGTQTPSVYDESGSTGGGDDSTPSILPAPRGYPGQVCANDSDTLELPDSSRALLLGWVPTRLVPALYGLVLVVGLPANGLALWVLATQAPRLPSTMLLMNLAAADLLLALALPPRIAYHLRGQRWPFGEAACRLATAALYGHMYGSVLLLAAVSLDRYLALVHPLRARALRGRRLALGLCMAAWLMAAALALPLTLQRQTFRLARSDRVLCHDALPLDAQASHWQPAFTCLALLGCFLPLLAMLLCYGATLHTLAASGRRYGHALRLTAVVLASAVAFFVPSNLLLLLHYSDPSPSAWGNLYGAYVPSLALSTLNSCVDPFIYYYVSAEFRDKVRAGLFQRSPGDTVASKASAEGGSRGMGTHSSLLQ

As for `COc1cc(OCc2cccc(-c3ccc(C#N)c(F)c3)c2)c2cc(-c3cn4nc(OC)sc4n3)oc2c1` [Example 30], in test [1], the IC50 was determined as 125 nM. As for `COc1cc(OCc2cccc(C3=CCOCC3)c2)c2cc(-c3cn4nc(OC)sc4n3)oc2c1` [Example 93], the values for the IC50 in test [2] and in test [1] were 0.71 nM and 105 nM, respectively. For the compound `COc1cc(OCc2cccc(-c3ccc([N+](=O)[O-])nc3)c2)c2cc(-c3cn4nc(OC)sc4n3)oc2c1` [Example 28], half-maximal inhibition in test [1] (IC50) required 24.6 nM. On to `COc1cc(OCc2ccnc(-c3ccnc(F)c3)n2)c2cc(-c3cn4nc(OC)sc4n3)oc2c1` [Example 97, 6-(4-((2-(2-Fluoropyridin-4-yl)pyrimidin-4-yl)methoxy)-6-methoxybenzofuran-2-yl)-2-methoxyimidazo[2,1-b][1,3,4]thiadiazole], for which the IC50 in test [2] is 0.36 nM; in test [1] it was 2.97 nM. Regarding `COc1cc(OCc2cccc(-c3ccc(C(=O)OC(C)(C)C)nc3)c2)c2cc(-c3cn4nc(OC)sc4n3)oc2c1` [Example 60], the IC50 was determined as 4.18 nM in test [2] and 81.3 nM in test [1].

Consider `COc1cc(OCc2cccc(-c3cncnc3)c2)c2cc(-c3cn4nc([C@H](C)F)sc4n3)oc2c1` [Example 64, (S)-2-(1-Fluoroethyl)-6-(6-methoxy-4-((3-(pyrimidin-5-yl)benzyl)oxy)benzofuran-2-yl)imidazo[2,1-b][1,3,4]thiadiazole], for which half-maximal inhibition in test [1] (IC50) was put at 490 nM. For the compound `COc1cc(OCc2ccnc(-c3ccc(C(=O)N(C)C)cc3)n2)c2cc(-c3cn4nc(OC)sc4n3)oc2c1` [Example 98], the IC50 was 0.29 nM in test [2] and 1.67 nM in test [1]. For the compound `COc1ccc(-c2nccc(COc3cc(OC)cc4oc(-c5cn6nc(OC)sc6n5)cc34)n2)cc1` [Example 100], the IC50 in test [2] is 0.76 nM; in test [1], 1.8 nM. As to `COc1cc(OCc2cccc(-c3ccc4c(c3)OCO4)c2)c2cc(-c3cn4nc(OC)sc4n3)oc2c1` [Example 18], the IC50 was 3.5 nM in test [2] and 68.2 nM in test [1]. Consider `COc1cc(OCc2cccc(-c3ccc(F)cn3)c2)c2cc(-c3cn4nc([C@H](C)F)sc4n3)oc2c1` [Example 69], for which 13.1 nM corresponded to half-maximal inhibition in test [1] (IC50).

Take `COc1cc(OCc2cccc(-c3cncnc3)c2)c2cc(-c3cn4nc(C(C)(F)F)sc4n3)oc2c1` [Example 63, 2-(1,1-Difluoroethyl)-6-(6-methoxy-4-((3-(pyrimidin-5-yl)benzyl)oxy)benzofuran-2-yl)imidazo[2,1-b][1,3,4]thiadiazole]: the IC50 in test [2] was 4.04 nM; in test [1], 2430 nM. `COc1cc(OCc2cccc(-c3ccc4c(c3)OCCO4)c2)c2cc(-c3cn4nc(OC)sc4n3)oc2c1` [Example 31] came in with an IC50 in test [1] of 49.9 nM. In the case of `COc1cc(OCc2cccc(-c3ccc(F)c(C)n3)c2)c2cc(-c3cn4nc(OC)sc4n3)oc2c1` [Example 32], the figures for the IC50 in test [2] and in test [1] were 0.57 nM and 2770 nM, respectively. Turning to `COc1cc(OCc2cccc(-c3cnsc3)c2)c2cc(-c3cn4nc(OC)sc4n3)oc2c1` [Example 48], the IC50 in test [2] is 1.03 nM; in test [1] it was 65.9 nM.

In the case of `COc1cc(OCc2cccc(-c3ncc(Cl)cc3F)c2)c2cc(-c3cn4nc(OC)sc4n3)oc2c1` [Example 50], the IC50 in test [2] turned out to be 1.88 nM.

Consider `COc1cc(OCc2cccc(-c3ccnc(C)c3)c2)c2cc(-c3cn4nc(OC)sc4n3)oc2c1` [Example 27], for which the IC50 in test [2] was found to be 4.29 nM. Take `COc1cc(OCc2cccc(-c3ccc4nccn4c3)c2)c2cc(-c3cn4nc(OC)sc4n3)oc2c1` [Example 23]: the IC50 in test [1] was determined as 629 nM. As to `COc1cc(OCc2cccc(-c3cnc(F)c(C)c3)c2)c2cc(-c3cn4nc(OC)sc4n3)oc2c1` [Example 38], the IC50 in test [2] came out at 0.68 nM. As for `COc1cc(OCc2cccc(-c3ccc(F)cc3F)c2)c2cc(-c3cn4nc(OC)sc4n3)oc2c1` [Example 17], the IC50 in test [2] was 3.78 nM. Take `COc1cc(OCc2cccc(-c3ccc(C)nc3F)c2)c2cc(-c3cn4nc(OC)sc4n3)oc2c1` [Example 39]: the IC50 in test [2] worked out at 0.53 nM.

With `COc1cc(OCc2cccc(C3(F)CCOCC3)n2)c2cc(-c3cn4nc(OC)sc4n3)oc2c1` [Example 113, 6-(4-((6-(4-Fluorotetrahydro-2H-pyran-4-yl)pyridin-2-yl)methoxy)-6-methoxybenzofuran-2-yl)-2-methoxyimidazo[2,1-b][1,3,4]thiadiazole], the IC50 in test [2] was determined as 0.35 nM.

`COc1cc(OCc2cccc(-c3cccnc3C#N)c2)c2cc(-c3cn4nc(OC)sc4n3)oc2c1` [Example 26] displayed an IC50 in test [1] of 970 nM. As for `COc1ccc(-c2cc(F)cc(COc3cc(OC)cc4oc(-c5cn6nc(OC)sc6n5)cc34)c2)nc1` [Example 62, 6-(4-((3-Fluoro-5-(5-methoxypyridin-2-yl)benzyl)oxy)-6-methoxybenzofuran-2-yl)-2-methoxyimidazo[2,1-b][1,3,4]thiadiazole], the IC50 in test [2] was 0.84 nM. As to `COc1cc(OCc2cccc(-c3ccc(Cl)nc3)n2)c2cc(-c3cn4nc(OC)sc4n3)oc2c1` [Example 76], the IC50 in test [2] was determined as 6.66 nM. As to `CCCOc1ncc(-c2cccc(COc3cc(OC)cc4oc(-c5cn6nc(OC)sc6n5)cc34)c2)cn1` [Example 37], the IC50 in test [2] was determined as 0.36 nM.

With `COc1cc(OCc2cccc(-c3ncccc3F)c2)c2cc(-c3cn4nc(OC)sc4n3)oc2c1` [Example 44], the IC50 in test [2] amounted to 1.21 nM.

Consider `COc1cc(OCc2cccc(-c3ncccc3C#N)c2)c2cc(-c3cn4nc(OC)sc4n3)oc2c1` [Example 46], for which the IC50 in test [2] turned out to be 1.64 nM. Turning to `COc1cc(OCc2cccc(-c3ccc(N4CCOCC4)nc3)c2)c2cc(-c3cn4nc(OC)sc4n3)oc2c1` [Example 59], the IC50 in test [2] is 4.81 nM; in test [1], 2670 nM. Consider `COc1cc(OCc2cccc(-c3cnc4ccccn34)c2)c2cc(-c3cn4nc(OC)sc4n3)oc2c1` [Example 21], for which the IC50 in test [2] amounted to 7.34 nM. Take `COc1cc(OCc2cccc(C3(O)CCOCC3)n2)c2cc(-c3cn4nc([C@H](C)F)sc4n3)oc2c1` [Example 110, (S)-4-(6-(((2-(2-(1-Fluoroethyl)imidazo[2,1-b][1,3,4]thiadiazol-6-yl)-6-methoxybenzofuran-4-yl)oxy)methyl)pyridin-2-yl)tetrahydro-2H-pyran-4-ol]: the IC50 in test [2] was 0.41 nM; in test [1], 87.6 nM. As to `COc1cc(OCc2cccc(-c3ccc(OC4CCCCO4)cn3)c2)c2cc(-c3cn4nc(OC)sc4n3)oc2c1` (centres unmarked) [Example 89], the IC50 in test [2] stood at 0.79 nM. On the same count and under the same terms, next, `COc1cc(OCc2cccc(-c3ccc(C(C)O)cn3)c2)c2cc(-c3cn4nc(OC)sc4n3)oc2c1` (centres unmarked) [Example 87, 1-(6-(3-(((6-Methoxy-2-(2-methoxyimidazo[2,1-b][1,3,4]thiadiazol-6-yl)benzofuran-4-yl)oxy)methyl)phenyl)pyridin-3-yl)ethanol]: 1.11 nM; `COc1cc(OCc2cncc(-c3ccoc3)c2)c2cc(-c3cn4nc(OC)sc4n3)oc2c1` [Example 65, 6-(4-((5-(Furan-3-yl)pyridin-3-yl)methoxy)-6-methoxybenzofuran-2-yl)-2-methoxyimidazo[2,1-b][1,3,4]thiadiazole]: 1.08 nM. Regarding `COc1cc(OCc2cccc(-c3csc4ccccc34)c2)c2cc(-c3cn4nc(OC)sc4n3)oc2c1` [Example 12], the IC50 in test [2] was 3.76 nM. Regarding `CSc1nn2cc(-c3nc4c(OCc5ccccc5-c5ccccc5)cccc4o3)nc2s1` [Example 80], the IC50 in test [2] worked out at 3130 nM. As to `COc1cc(OCc2cccc(-c3cnc(OC)nc3)c2)c2cc(-c3cn4nc(C)ccc4n3)oc2c1` [Example 82, 2-(6-Methoxy-4-((3-(2-methoxypyrimidin-5-yl)benzyl)oxy)benzofuran-2-yl)-6-methylimidazo[1,2-b]pyridazine], the IC50 in test [2] is 1.32 nM. On to `COc1cc(COc2cc(OC)cc3oc(-c4cn5nc(OC)sc5n4)cc23)cc(-c2cnc(OC)nc2)c1` [Example 71], for which the figures for the IC50 in test [2] and in test [1] were 0.5 nM and 3.61 nM, respectively.

`COc1cc(OCc2cccc(C3=CCCCC3)c2)c2cc(-c3cn4nc(OC)sc4n3)oc2c1` [Example 94]: in test [2], the IC50 came out at 2.21 nM.

Turning to `COc1cc(OCc2cccc(-c3ccc(C(=O)N(C)C)cc3)n2)c2cc(-c3cn4nc(OC)sc4n3)oc2c1` [Example 96, 4-(6-(((6-Methoxy-2-(2-methoxyimidazo[2,1-b][1,3,4]thiadiazol-6-yl)benzofuran-4-yl)oxy)methyl)pyridin-2-yl)-N,N-dimethylbenzamide], in test [2], the IC50 came out at 0.23 nM. Take `COc1nn2cc(-c3nc4c(OCc5cccc(-c6ccoc6)c5)cccc4o3)nc2s1` [Example 81, 4-((3-(Furan-3-yl)benzyl)oxy)-2-(2-methoxyimidazo[2,1-b][1,3,4]thiadiazol-6-yl)benzo[d]oxazole]: the figures for the IC50 in test [2] and in test [1] were 22.1 nM and 5000 nM, respectively. Take `COc1cc(OCc2cccc(-c3cnn(C)c3)c2)c2cc(-c3cn4nc(OC)sc4n3)oc2c1` [Example 10]: in test [2], the IC50 was found to be 3.55 nM.

Turning to `COc1cc(OCc2cccc(-c3cccnc3F)c2)c2cc(-c3cn4nc(OC)sc4n3)oc2c1` [Example 45], the IC50 in test [2] is 1.03 nM. In the case of `COc1cc(OCc2cccc(-c3ccc(F)nc3)c2)c2cc(-c3cn4nc(C(C)(F)F)sc4n3)oc2c1` [Example 68], the results for the IC50 in test [2] and in test [1] were 3.37 nM and 2230 nM, respectively. In the case of `COc1cc(OCc2cccc(C3(O)CCOCC3)n2)c2cc(-c3cn4nc(OC)sc4n3)oc2c1` [Example 109, 4-(6-(((6-Methoxy-2-(2-methoxyimidazo[2,1-b][1,3,4]thiadiazol-6-yl)benzofuran-4-yl)oxy)methyl)pyridin-2-yl)tetrahydro-2H-pyran-4-ol], the IC50 in test [2] worked out at 0.45 nM. Turning to `COc1cc(OCc2cccc(C3(F)CCOCC3)n2)c2cc(-c3cn4nc([C@H](C)F)sc4n3)oc2c1` [Example 114, (S)-2-(1-Fluoroethyl)-6-(4-((6-(4-fluorotetrahydro-2H-pyran-4-yl)pyridin-2-yl)methoxy)-6-methoxybenzo-furan-2-yl)imidazo[2,1-b][1,3,4]thiadiazole], the IC50 in test [2] amounted to 0.31 nM.

One may read the IC50 as the concentration that gives 50% inhibition.

The values are drawn from patent US9518064B2, “Imidazothiadiazole and imidazopyridazine derivatives as protease activated receptor 4 (PAR4) inhibitors for treating platelet aggregation” (BRISTOL-MYERS SQUIBB COMPANY, priority 2012, dated 2016).
